# Reference: PubChem BioAssay AID1208 (EPA DSSTox, 2008)
# Activity calls are given as the source filed them.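 Rule for the calls: active = at least one rat sex group has a carcinogenic potency value and tumor site recorded; inconclusive = only rat studies were judged inadequate by the national testing program; inactive = no potency or tumor site, with negative rat experiments.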
# Tested on: rat chronic carcinogenicity bioassay, TD50
# Test: DSSTox (CPDBAS) Carcinogenic Potency Database Summary Rat Bioassay Results
# Conditions: for outcome: TD50_Rat_Note: no positive results; for Potency: hits give low values
# How it was run: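 The activity score maps log10(1/TD50_Rat_mmol) linearly onto 1–100; actives without a computed TD50, such as mixtures, receive 50. Source data are chronic rat carcinogenicity tests, using the most positive experiment for each sex.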
# [1] = TargetSites_Rat_Female: no positive results
# [2] = TD50_Rat_Note: TD50 is harmonic mean of more than one positive test, TargetSites_Rat_Female: stomach
structure (smiles),measurement,setting,value
COc1ccc2c3c1O[C@H]1[C@@H](O)C=C[C@H]4[C@@H](C2)N(C)CC[C@@]341,outcome,[1],inactive; no positive results
c1ccc(C2CO2)cc1 (stereo not given),Potency,[2],55.4 mg/kg/day
CC[N+]([O-])=NC,Potency,,0.0189 mg/kg/day
COc1cc(OC)c2c3c(c(=O)oc2c1)CCC3,outcome,,inactive; no positive results
[O]=[Cr][O][Cr]=[O],outcome,TargetSites_Rat_BothSexes: no positive results,inactive
Cc1cnc(NC(=O)C2=C(O)c3ccccc3S(=O)(=O)N2C)s1,outcome,[1],inactive; no positive results
CCBr,Potency,"TD50_Rat_Note: no positive results are statistically significant, TargetSites_Rat_Female: no positive results",149 mg/kg/day
OCCN(CCO)CCO,outcome,[1],inactive; no positive results
Nc1nc(=S)c2ncn([C@H]3C[C@H](O)[C@@H](CO)O3)c2[nH]1,Potency,"TD50_Rat_Note: positive test results only by intraperitoneal or intravenous injection, TargetSites_Rat_Female: ear Zymbals gland",2.1 mg/kg/day
C1C2OC2C2C1C1CC2C2OC12 (stereo not given),outcome,,inactive; no positive results
CCn1nc(C)c2c1C(c1ccccc1)=NCC(=O)N2,outcome,[1],inactive; no positive results
N#Cc1ccc(C2CCCc3cncn32)cc1 (stereo not given),outcome,[1],inactive; no positive results
CCN(Cc1cccc(S(=O)(=O)[O-])c1)c1ccc(C(=C2C=CC(=[N+](C)C)C=C2)c2ccc(N(CC)Cc3cccc(S(=O)(=O)O)c3)cc2)cc1,Potency,"TD50_Rat_Note: TD50 is harmonic mean of more than one positive test, TargetSites_Rat_Female: mammary gland, skin",612 mg/kg/day
Clc1ccc2c(c1)C(c1ccccc1)=NCc1nncn1-2,outcome,[1],inactive; no positive results
Cc1cn([C@H]2C[C@H](N=[N+]=[N-])[C@@H](CO)O2)c(=O)[nH]c1=O,Potency,TargetSites_Rat_Female: vagina,11600 mg/kg/day
Cn1cc(OCC(O)CNC(C)(C)C)c2ccccc2c1=O (stereo not given),outcome,[1],inactive; no positive results
CC1SC(C)N(N=O)C(C)S1 (stereo not given),Potency,"TargetSites_Rat_Female: esophagus, liver, oral cavity",0.483 mg/kg/day
Cc1nnc2n1-c1sc(CCc3ccc(CC(C)C)cc3)cc1C(c1ccccc1Cl)=NC2C (stereo not given),outcome,[1],inactive; no positive results
COc1ccc(N)cc1,outcome,[1],inactive; no positive results
C/C=C/C=C/C(=O)O,outcome,[1],inactive; no positive results
NC(=O)CCCCn1ccc(NC(N)=NCC(F)(F)F)n1,Potency,[2],1170 mg/kg/day
O=NN1CCCN(N=O)CC1,Potency,"TD50_Rat_Note: TD50 is harmonic mean of more than one positive test, TargetSites_Rat_Female: esophagus, liver, nasal cavity, oral cavity",0.0615 mg/kg/day
c1ccc(NNc2ccccc2)cc1,Potency,"TD50_Rat_Note: TD50 is harmonic mean of more than one positive test, TargetSites_Rat_Female: liver, mammary gland",5.59 mg/kg/day
CN(CCCC(=O)c1cccnc1)N=O,Potency,TD50_Rat_Note: TD50 is harmonic mean of more than one positive test,0.0999 mg/kg/day
O=C1C(O)N=C(c2ccccc2F)c2cc(Cl)ccc2N1CCO (stereo not given),outcome,[1],inactive; no positive results
CN(N=O)C(=O)NCCC[C@H](N)C(=O)O,Potency,"TD50_Rat_Note: positive test results only by intraperitoneal or intravenous injection, TD50 is harmonic mean of more than one positive, TargetSites_Rat_Female: kidney, mammary gland, pancreas, skin",0.787 mg/kg/day
COc1c(Cl)c(Cl)c(Cl)c(Cl)c1Cl,Potency,[1],24.8 mg/kg/day
FC(F)(F)C(Cl)Cl,Potency,"TD50_Rat_Note: TD50 is harmonic mean of more than one positive test, greater than ten-fold variation among TD50 values for positive res, TargetSites_Rat_Female: liver",2370 mg/kg/day
O=[N+]([O-])c1ccc2ccc3cccc4ccc1c2c34,Potency,"TargetSites_Rat_Female: clitoral gland, hematopoietic system, mammary gland",3.33 mg/kg/day
OCc1ccccc1,outcome,[1],inactive; no positive results
Nc1ccc(Oc2ccc(Cl)cc2)cc1,Potency,,37.6 mg/kg/day
CCCCC1C(=O)N(c2ccccc2)N(c2ccccc2)C1=O,Potency,TargetSites_Rat_Female: kidney,1160 mg/kg/day
[O-][Cl+]O,outcome,[1],inactive; no positive results
COc1ccc(N)c(C)c1,Potency,"TD50_Rat_Note: TD50 is harmonic mean of more than one positive test, TargetSites_Rat_Female: urinary bladder",470 mg/kg/day
ClC1=C(Cl)[C@@]2(Cl)[C@@H]3[C@@H](Cl)[C@H](Cl)C[C@@H]3C1(Cl)C2(Cl)Cl,outcome,[1],inactive; no positive results
CBr,outcome,[1],inactive; no positive results
CN(CC(O)CO)N=O (stereo not given),Potency,"TargetSites_Rat_Female: esophagus, liver, lung, nasal cavity",0.646 mg/kg/day
C[C@]12CC[C@@H]3c4ccc(OC(=O)Cc5ccc(N(CCCl)CCCl)cc5)cc4CC[C@H]3[C@@H]1CC[C@@H]2OC(=O)Cc1ccc(N(CCCl)CCCl)cc1,outcome,[1],inactive; no positive results
NC(=S)NNC=O,outcome,[1],inactive
CC(O)CCl (stereo not given),outcome,[1],inactive; no positive results
CCC(CC)[N+](=O)[O-],Potency,,2.37 mg/kg/day
CC(N)Cc1ccccc1 (stereo not given),outcome,[1],inactive; no positive results
CC(Cl)(Cl)Cl,outcome,[1],inactive; no positive results
Nc1ccc(Sc2ccc(N)cc2)cc1,Potency,"TD50_Rat_Note: TD50 is harmonic mean of more than one positive test, TargetSites_Rat_Female: ear Zymbals gland, thyroid gland, uterus",3.71 mg/kg/day
CNC(=O)O/N=C/C(C)(C)SC,outcome,[1],inactive; no positive results
